Source: patent US11931485B2, “Implantable sustained release device and a method of use therefor in the treatment of brain disorders” (priority 2021, dated 2024)
Like-named read-outs stand apart in the source and are kept apart here.

Legend:
[1] = tested on: trigeminal nerve ganglion function; experiment: Intra-arterial lidocaine in the middle meningeal artery territory in patients with refractory trigeminal neuralgia (blink reflex monitoring, clinical outcome); type: in vivo
Source text: Trigeminal neuralgia consists of unilateral, brief/paroxysmal, or continuous pain in one or more divisions of the trigeminal nerve. The pain is secondary to hyperactivity or spontaneous impulse generation within the nerves due to extrinsic compression or intrinsic neural dysfunction. In the experiment, the intra-arterial delivery of medication for modulating trigeminal nerve ganglion function in patients with refractory trigeminal neuralgia was examined. […] Clinical outcome assessment included a 10-point numeric rating, 4-point severity grading, and the pain-free time interval pre- and post-treatment.

[2] = tested on: patients suffering from severe headaches

CCN(CC)CC(=O)Nc1c(C)cccc1C [lidocaine]
symptoms at follow-up ([1]; all three patients, 1 month later): returned to baseline severity
facial hyperalgesia ([1]; all three patients, all dermatomes): improvement in facial hyperalgesia
pain severity (10-point numeric rating, 4-point severity grading) ([1]; second and third patients): improvement in pain severity on all scales
pain-free interval ([1]; second patient): 5 days
pain-free interval ([1]; third patient): 3 days
self-reported headache intensity (Visual Analog scale) ([2]; first patient, after 5 min of lidocaine injection (40 mg), pre-procedure intensity 10): 5
self-reported headache intensity (Visual Analog scale) ([2]; second patient, after 5 min of lidocaine injection, pre-procedure intensity 7): 4
